Laboratory results taken from patent US9404081B2, “Pyruvate kinase activators for use in therapy” (AGIOS PHARMACEUTICALS, INC., priority 2011, dated 2016).

Tests used:
Assay type in all cases: biochemical
PKR R510Q = PKR R510Q (Homo sapiens, UniProt P30613, R510Q); assay: PKR R510Q Single Point Percent Activation Assay; settings: for activation at 1 µM: read-out: Act. % 510Q
Procedure, shortened: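 Test compound was used at a single concentration of 1 μM and preincubated 60 min at room temperature with PKR R510Q (40 ng/well). The buffer was 50 mM Tris pH 7.5, 100 mM KCl, 5 mM MgCl2, 1 mM DTT and 0.03% BSA. The reaction was started with 0.2 mM ADP and read as OD340 in an LDH-coupled system (0.11 mM PEP, 180 μM NADH).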

PKR R532W = PKR R532W (Homo sapiens, UniProt P30613, R532W); assay: PKR R532W Single Point Percent Activation Assay; settings: for activation at 1 µM: read-out: Act, % 532W
Procedure, shortened: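 PKR R532W (100 ng/well) preincubated 60 min at RT with compound at 1 μM in Tris pH 7.5, KCl, MgCl2, DTT, BSA. Reaction started with ADP (0.36 mM), with PEP 0.1 mM, NADH 180 μM and LDH coupling; read at OD340, room temperature.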

PKR wt = PKR wt (Homo sapiens, UniProt P30613); assay: PKR WT Single Point Percent Activation Assay
Procedure, shortened: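 Single concentration of 1 μM compound preincubated 60 min at RT with PKR wt (100 ng/well) in Tris pH 7.5, KCl, MgCl2, DTT, BSA. Reaction started with ADP (0.48 mM final) with PEP 0.15 mM, coupled LDH/NADH (180 μM), read at OD340, room temperature; given as percent activation.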

PKR T384W = PKR T384W (Homo sapiens, UniProt P30613, T384W); assay: PKR T384W Single Point Percent Activation Assay; settings: for activation at 1 µM: read-out: Act. % 384W
Procedure, shortened: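 Soluble PKR T384W (300 ng/well) preincubated 60 min at RT with 1 μM compound in 50 mM Tris pH 7.5, 100 mM KCl, 5 mM MgCl2, 1 mM DTT, 0.03% BSA. Started with ADP (0.08 mM); PEP 0.23 mM, LDH-coupled NADH (180 μM) consumption read at OD340, room temperature.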

Chain of PKR T384W (P30613 whole entry T384W): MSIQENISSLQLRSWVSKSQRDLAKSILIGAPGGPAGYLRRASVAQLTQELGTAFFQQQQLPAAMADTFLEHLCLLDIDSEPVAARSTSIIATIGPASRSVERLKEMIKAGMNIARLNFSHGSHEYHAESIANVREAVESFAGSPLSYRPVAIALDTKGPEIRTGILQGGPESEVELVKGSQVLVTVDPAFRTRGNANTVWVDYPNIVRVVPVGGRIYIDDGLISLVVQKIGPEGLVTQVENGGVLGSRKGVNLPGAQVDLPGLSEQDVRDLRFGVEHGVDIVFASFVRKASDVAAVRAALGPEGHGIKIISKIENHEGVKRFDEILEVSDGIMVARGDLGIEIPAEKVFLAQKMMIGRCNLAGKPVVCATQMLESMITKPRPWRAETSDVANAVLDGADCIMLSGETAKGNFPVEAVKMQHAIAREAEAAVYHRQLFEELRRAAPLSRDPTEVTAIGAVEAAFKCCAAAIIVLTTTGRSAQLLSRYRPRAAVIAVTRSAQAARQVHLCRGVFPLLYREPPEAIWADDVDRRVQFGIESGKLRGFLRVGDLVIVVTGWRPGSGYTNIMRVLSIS
Chain of PKR wt (P30613 whole entry): as the sequence (P30613 whole entry T384W) above, with W384T counted along it
Chain of PKR R532W (P30613 whole entry R532W): as the sequence (P30613 whole entry T384W) above, with W384T, R532W counted along it
Chain of PKR R510Q (P30613 whole entry R510Q): as the sequence (P30613 whole entry T384W) above, with W384T, R510Q counted along it

Compound	activation at 1 µM (PKR R510Q)	activation at 1 µM (PKR R532W)	activation at 1 µM (PKR wt)	activation at 1 µM (PKR T384W)	Act. % 510Q (PKR R510Q; % activation at 1 μM)	Act, % 532W (PKR R532W; % activation at 1 μM)	Act. % WT (PKR wt; % activation at 1 μM)	Act. % 384W (PKR T384W; % activation at 1 μM)
C[C@H]1CN(C(=O)O[C@@H]2CCOC2)CCN1C(=O)c1ccc(NS(=O)(=O)c2cccc3cccnc23)cc1	1 to 100%	101 to 500%	101 to 500%	101 to 500%				
C[C@@H]1CN(Cc2ccc(Cl)c(F)c2)CCN1C(=O)c1ccc(NS(=O)(=O)c2cccc3cccnc23)cc1	1 to 100%	101 to 500%	101 to 500%	1 to 100%				
C[C@H]1CN(CC2CC2)CCN1C(=O)c1ccc(NS(=O)(=O)c2cccc3cccnc23)cc1Cl	1 to 100%	1 to 100%	1 to 100%	1 to 100%				
C[C@@H]1CN(C(=O)OC2CCCOC2)CCN1C(=O)c1ccc(NS(=O)(=O)c2cccc3cccnc23)cc1 (stereo partly drawn)	101 to 500%	101 to 500%	101 to 500%	101 to 500%				
CC1CN(CC2CC2)CC(C)N1C(=O)c1ccc(NS(=O)(=O)c2cccc3cccnc23)cc1 (stereo not drawn)	1 to 100%	101 to 500%	101 to 500%	101 to 500%				
C[C@H]1CN(Cc2ccc(F)c(F)c2F)CCN1C(=O)c1ccc(NS(=O)(=O)c2cccc3cccnc23)cc1 [drawing 87]					A (a % activation at 1 μM of from 1 to 100)	B (a % activation at 1 μM of from 101 to 500)	A (a % activation at 1 μM of from 1 to 100)	A (a % activation at 1 μM of from 1 to 100)
C[C@@H]1CN(C(=O)OCCC2CCCC2)CCN1C(=O)c1ccc(NS(=O)(=O)c2cccc3cccnc23)cc1	1 to 100%	1 to 100%	1 to 100%	1 to 100%				
CC1CN(CC2CCOC2)CC(C)N1C(=O)c1ccc(NS(=O)(=O)c2cccc3cccnc23)cc1 (stereo not drawn)	101 to 500%	1 to 100%	1 to 100%	1 to 100%				
C[C@H]1CN(Cc2cc(F)c(F)c(F)c2)CCN1C(=O)c1ccc(NS(=O)(=O)c2cccc3cccnc23)cc1	1 to 100%	1 to 100%	1 to 100%	101 to 500%				
CC(c1cc(F)c(F)cc1F)N1CCN(C(=O)c2ccc(NS(=O)(=O)c3cccc4cccnc34)cc2)[C@@H](C)C1 (stereo partly drawn)	1 to 100%	101 to 500%	101 to 500%	101 to 500%				
C[C@H]1CN(C(=O)c2ccc(NS(=O)(=O)c3cccc4cccnc34)cc2)CCN1Cc1ccccc1	101 to 500%	101 to 500%	101 to 500%	101 to 500%				
COc1ccccc1N1C[C@@H](C)N(C(=O)c2ccc(NS(=O)(=O)c3cccc4cccnc34)cc2)[C@@H](C)C1	101 to 500%	101 to 500%	101 to 500%	101 to 500%				
CC1CN(Cc2cc(F)cc(F)c2F)CC(C)N1C(=O)c1ccc(NS(=O)(=O)c2cccc3cccnc23)cc1 (stereo not drawn)	101 to 500%	101 to 500%	101 to 500%	101 to 500%				
C[C@H]1CN(Cc2c(F)ccc(F)c2F)CCN1C(=O)c1ccc(NS(=O)(=O)c2cccc3cccnc23)cc1	1 to 100%	1 to 100%	101 to 500%	101 to 500%				
CC(c1ccc(Cl)c(F)c1)N1CCN(C(=O)c2ccc(NS(=O)(=O)c3cccc4cccnc34)cc2)[C@@H](C)C1 (stereo partly drawn)	101 to 500%	1 to 100%	1 to 100%	1 to 100%				
CC(C)[C@H]1CN(Cc2ccc(F)cc2)CCN1C(=O)c1ccc(NS(=O)(=O)c2cccc3cccnc23)cc1	1 to 100%	1 to 100%	1 to 100%	101 to 500%				
O=C(c1ccc(NS(=O)(=O)c2cccc3cccnc23)cc1)N1CCN(Cc2cc(F)cc(F)c2)c2ccccc21	1 to 100%	101 to 500%	101 to 500%	101 to 500%				
C[C@H]1CN(Cc2ccccc2)CCN1C(=O)c1ccc(NS(=O)(=O)c2cccc3cccnc23)cc1	101 to 500%	101 to 500%	101 to 500%	101 to 500%				
